Measured values from patent US7553867B2, “Furan or thiophene derivative and medicinal use thereof” (Takeda Pharmaceutical Company Limited, priority 2002, dated 2009).

Cc1oc(-c2ccc(C(F)(F)F)cc2)cc1CCc1nc(C(C)C)c(CC(=O)O)s1 [Example 13(3), [4-Isopropyl-2-(2-{2-methyl-5-[4-(trifluoromethyl)phenyl]-3-furyl}ethyl)-1,3-thiazol-5-yl]acetic acid]
melting point: 176 to 177 °C

CCCCc1oc(-c2ccc(C(F)(F)F)cc2)cc1CCC(=O)Nc1cccc(CSCC(=O)O)c1 [Example 2(5), ({3-[(3-{2-Butyl-5-[4-(trifluoromethyl)phenyl]-3-furyl}propionyl)amino)benzyl}thio) acetic acid]
melting point: 137 to 138 °C

Cc1oc(-c2ccc(C(F)(F)F)cc2)cc1COc1cccc(CSC(C)C(=O)O)c1 (centres unmarked) [Example 9(1), 2-{[3-({2-Methyl-5-[4-(trifluoromethyl)phenyl]-3-furyl}methoxy)-benzyl]thio}propionic acid]
melting point: 82 to 83 °C

COc1cccc(-c2cc(COc3ccc(OC(C)(C)C(=O)O)cc3)c(C)o2)c1 [Example 6(60), 2-(4-{[5-(3-Methoxyphenyl)-2-methyl-3-furyl]methoxy}phenoxy)-2-methylpropionic acid]
melting point: 111 to 112 °C

Cc1oc(-c2ccc(C(F)(F)F)cc2)cc1/C=C/c1ccc(OC(C)(C)C(=O)O)cc1 [Example 22(1), 2-Methyl-2-[4-((E)-2-{2-methyl-5-[4-(trifluoromethyl)phenyl]-3-furyl}ethenyl)phenoxy]propionic acid]
melting point: 140 to 141 °C

Cc1oc(-c2ccc(C(F)(F)F)cc2)cc1COc1ccc2cc(CCC(=O)O)ccc2c1 [Example 6(34), 3-[6-({2-Methyl-5-[4-(trifluoromethyl)phenyl]-3-furyl}methoxy)-2-naphthyl]propionic acid]
melting point: 191 to 192 °C

Cc1oc(-c2ccc(C(F)(F)F)cc2)cc1COc1ccc2sc(CSC(C)(C)C(=O)O)cc2c1 [Example 6(107), 2-Methyl-2-({[5-({2-methyl-5-[4-(trifluoromethyl)phenyl]-3-furyl}methoxy)-1-benzothien-2-yl]methyl}thio)propionic acid]
melting point: 158 to 159 °C

Cc1oc(-c2ccc(C(F)(F)F)cc2)cc1COc1cccc(CSC(C)(C)C(=O)O)c1F [Example 6(96), 2-{[2-Fluoro-3-({2-methyl-5-[4-(trifluoromethyl)phenyl]-3-furyl}methoxy)benzyl]thio}-2-methylpropionic acid]
melting point: 106 to 108 °C

COc1cc(CC(=O)O)ccc1OCc1cc(-c2ccc(C(F)(F)F)cc2)oc1C [Example 6(81), [3-Methoxy-4-({2-methyl-5-[4-(trifluoromethyl)phenyl]-3-furyl}methoxy)phenyl]acetic acid]
melting point: 139 to 140 °C

Cc1oc(-c2ccc(C(F)(F)F)cc2)cc1CCOc1ccc(CC(=O)O)cc1 [Example 6(13), [4-(2-{2-Methyl-5-[4-(trifluoromethyl)phenyl]-3-furyl}ethoxy)phenyl]acetic acid]
melting point: 115 to 116 °C

Cc1oc(-c2ccc(C(F)(F)F)cc2)cc1CCCCOc1ccc(OC(C)(C)C(=O)O)cc1 [Example 6(104), 2-Methyl-2-[4-(4-{2-methyl-5-[4-(trifluoromethyl)phenyl]-3-furyl}butoxy)phenoxy]propionic acid]
melting point: 67 to 69 °C

Cc1oc(-c2ccc(OC(F)(F)F)cc2)cc1C(=O)Nc1cccc(CSCC(=O)O)c1 [Example 4(2)]
melting point: 200 to 202 °C

Cc1oc(-c2ccc(C(F)(F)F)cc2)cc1COc1ccc2sc(CCC(=O)O)cc2c1 [Example 6(103), 3-[5-({2-Methyl-5-[4-(trifluoromethyl)phenyl]-3-furyl}methoxy)-1-benzothien-2-yl]propionic acid]
melting point: 187 to 188 °C

Cc1oc(-c2ccc(C(F)(F)F)cc2)cc1COc1ccc(F)c(CSC(C)(C)C(=O)O)c1 [Example 6(95), 2-{[2-Fluoro-5-({2-methyl-5-[4-(trifluoromethyl)phenyl]-3-furyl}methoxy)benzyl]thio}-2-methylpropionic acid]
melting point: 131 to 132 °C

CCc1oc(-c2ccc(C(F)(F)F)cc2)cc1CCCOc1ccc2sc(CC(=O)O)cc2c1 [Example 6(102), [5-(3-{2-Ethyl-5-[4-(trifluoromethyl)phenyl]-3-furyl}propoxy)-1-benzothien-2-yl]acetic acid]
melting point: 111 to 112 °C

Cc1oc(-c2ccccc2C(F)(F)F)cc1COc1ccc(SC(C)(C)C(=O)O)cc1 [Example 6(117), 2-Methyl-2-{[4-({2-methyl-5-[2-(trifluoromethyl)phenyl]-3-furyl}methoxy)phenyl]thio}propionic acid]
melting point: 115 to 116 °C

Cc1oc(-c2cccc(C(F)(F)F)c2)cc1COc1cccc(CSC(C)(C)C(=O)O)c1 [Example 6(59), 2-Methyl-2-{[3-({2-methyl-5-[3-(trifluoromethyl)phenyl]-3-furyl}methoxy)benzyl]thio}propionic acid]
melting point: 81 to 82 °C

Cc1oc(-c2ccccc2)cc1COc1cccc(CSC(C)(C)C(=O)O)c1 [Example 6(119), 2-Methyl-2-({3-[(2-methyl-5-phenyl-3-furyl)methoxy]benzyl}thio)propionic acid]
melting point: 113 to 114 °C

CCc1oc(-c2ccc(C(F)(F)F)cc2)cc1CCCOc1nn(CC(=O)O)c2ccccc12 [Example 6(100), [3-(3-{2-Ethyl-5-[4-(trifluoromethyl)phenyl]-3-furyl}propoxy)-1H-indazol-1-yl]acetic acid]
melting point: 139 to 140 °C

CCOC(=O)C(C)(C)Oc1ccc(/C=C\c2cc(-c3ccc(C(F)(F)F)cc3)oc2C)cc1 [Example 21-b, Ethyl 2-methyl-2-[4-((Z)-2-{2-methyl-5-[4-(trifluoromethyl)phenyl]-3-furyl}ethenyl)phenoxy]propionate]
melting point: 84 to 85 °C

Cc1oc(-c2ccc(C(F)(F)F)cc2)cc1CCCCOc1ccc(SC(C)(C)C(=O)O)cc1 [Example 6(106), 2-Methyl-2-{[4-(4-{2-methyl-5-[4-(trifluoromethyl)phenyl]-3-furyl}butoxy)phenyl]thio}propionic acid]
melting point: 155 to 156 °C

Cc1oc(-c2ccc(C(F)(F)F)cc2)cc1CCc1ncc(CC(=O)O)s1 [Example 13(1), [2-(2-{2-Methyl-5-[4-(trifluoromethyl)phenyl]-3-furyl}ethyl)-1,3-thiazol-5-yl]acetic acid]
melting point: 143 to 145 °C

CCc1oc(-c2ccc(C(F)(F)F)cc2)cc1CCCOc1cccc(CC(=O)O)c1C [Example 6(50), [3-(3-{2-Ethyl-5-[4-(trifluoromethyl)phenyl]-3-furyl}propoxy)-2-methylphenyl]acetic acid]
melting point: 109 to 110 °C

Cc1oc(-c2ccc(C(F)(F)F)cc2)cc1COc1ccc(OC(C)(C)C(=O)O)cc1 [Example 6(5), 2-Methyl-2-[4-({2-methyl-5-[4-(trifluoromethyl)phenyl]-3-furyl}methoxy)phenoxy]propionic acid]
melting point: 134 to 135 °C

Cc1oc(-c2cccc(F)c2)cc1COc1ccc(SC(C)(C)C(=O)O)cc1 [Example 6(115), 2-[(4-{[5-(3-Fluorophenyl)-2-methyl-3-furyl]methoxy}phenyl)thio]-2-methylpropionic acid]
melting point: 146 to 147 °C

Cc1oc(-c2ccc(C(F)(F)F)cc2)cc1/C=C\c1ccc(OC(C)(C)C(=O)O)cc1 [Example 22(2), 2-Methyl-2-[4-((Z)-2-{2-methyl-5-[4-(trifluoromethyl)phenyl]-3-furyl}ethenyl)phenoxy]propionic acid]
melting point: 117 to 118 °C
